Legend:
BCBL-1 cells = settings: 3 weeks
Experimental: Mice were injected with 2×10^7 BCBL-1 cells and were weighed as a function of time every week for 3 weeks, to assess tumor growth. […] The weight is shown on the ordinate and time in days on the abscissa.
Mice were injected with 2×10^7 BCBL-1 cells (a strain of PEL cells) and were weighed as a function of time every week for three weeks, to assess tumor growth. Weight was compared to control mice not receiving BCBL-1 cells.

[1] = tested on: BCBL-1 primary effusion lymphoma (PEL) cells; assay: rapamycin cell killing of BCBL-1 PEL cells in culture with or without oHA (relative cell viability); format: cell-based, human
Experimental: The cells used are the PEL strain known as body cavity-based lymphoma-1 (BCBL-l; diamonds and squares). The squares indicate data from cells to which oHA was added along with rapamycin.
Cell viability was assessed using both MTT and Trypan blue exclusion assays as described in Qin Z, et al. PLoS Pathog 2010; 6(1): e1000742. For MTT assays, a total of 5×10^3 PEL cells were incubated individual wells of a 96-well plate for 24 hours. Serial dilutions of paclitaxel, doxorubicin or oHAs were added and subsequently incubated in 1 mg/ml MTT solution (Sigma-Aldrich) at 37° C. for 3 hours. Thereafter, cells were incubated in 50% dimethylsulfoxide overnight and optical densities determined at 570 nm using a spectrophotometer (Thermo Labsystems, West Palm Beach, Fla., USA). For Trypan blue exclusion assays, cells were incubated with 0.4% Trypan blue (MP Biomedicals, Northbrook, Ill., USA) and observed under light microscopy. Relative cell viability was determined after assessment of at least 1000 cells per condition for each experiment using the following formula: (no. of live cells/no. of total cells for experimental conditions)/ (no. of live cells/no. of total cells for vehicle-treated control cells). […]

[2] = doxorubicin 0.2 mg/kg intraperitoneally

| SMILES | effect on progress of lymphoma (weight gain) (BCBL-1 cells; doxorubicin 0.2 mg/kg i.p., oHA 0.5 mg/kg i.p.) | tumor-associated weight gain (BCBL-1 cells; [2]) | tumor-associated weight gain from baseline weight of 25-28g (BCBL-1 cells; [2]) | survival (relative cell viability) ([1]; 1 nM rapamycin, this agent alone) | IC50 ([1]; Homo sapiens, BCBL1, read-out: concentration of rapamycin giving cell death of about half the cells, rapamycin alone) |
| --- | --- | --- | --- | --- | --- |
| COc1cccc2c1C(=O)c1c(O)c3c(c(O)c1C2=O)C[C@@](O)(C(=O)CO)C[C@@H]3O[C@H]1C[C@H](N)[C@H](O)[C@H](C)O1 [doxorubicin] | only slightly reduced the increase in weight | 4 to 7 g | approximately 35% |  |  |
| CO[C@H]1C[C@@H]2CC[C@@H](C)[C@@](O)(O2)C(=O)C(=O)N2CCCC[C@H]2C(=O)O[C@H]([C@H](C)C[C@@H]2CC[C@@H](O)[C@H](OC)C2)CC(=O)[C@H](C)/C=C(\C)[C@@H](O)[C@@H](OC)C(=O)[C@H](C)C[C@H](C)/C=C/C=C/C=C/1C [rapamycin] |  |  |  | greater than 0.95 | 10 to 20 nM |

From patent US20120220548A1, “Compositions and methods for treatment of virus-associated cancer cells” (priority 2011, published 2012)
